{"source": "patent US6395780B1", "about": "“Cleavage system inhibitors as potential antipsychotics” (Merck Patent GmbH, priority 1999, dated 2002)", "key": {"[1]": {"biological_target": "T1, Glycine Cleavage System (GCS) (Homo sapiens, UniProt P09622+P23378+P23434+P48728)", "T1 sequence (P23378 36-1020)": "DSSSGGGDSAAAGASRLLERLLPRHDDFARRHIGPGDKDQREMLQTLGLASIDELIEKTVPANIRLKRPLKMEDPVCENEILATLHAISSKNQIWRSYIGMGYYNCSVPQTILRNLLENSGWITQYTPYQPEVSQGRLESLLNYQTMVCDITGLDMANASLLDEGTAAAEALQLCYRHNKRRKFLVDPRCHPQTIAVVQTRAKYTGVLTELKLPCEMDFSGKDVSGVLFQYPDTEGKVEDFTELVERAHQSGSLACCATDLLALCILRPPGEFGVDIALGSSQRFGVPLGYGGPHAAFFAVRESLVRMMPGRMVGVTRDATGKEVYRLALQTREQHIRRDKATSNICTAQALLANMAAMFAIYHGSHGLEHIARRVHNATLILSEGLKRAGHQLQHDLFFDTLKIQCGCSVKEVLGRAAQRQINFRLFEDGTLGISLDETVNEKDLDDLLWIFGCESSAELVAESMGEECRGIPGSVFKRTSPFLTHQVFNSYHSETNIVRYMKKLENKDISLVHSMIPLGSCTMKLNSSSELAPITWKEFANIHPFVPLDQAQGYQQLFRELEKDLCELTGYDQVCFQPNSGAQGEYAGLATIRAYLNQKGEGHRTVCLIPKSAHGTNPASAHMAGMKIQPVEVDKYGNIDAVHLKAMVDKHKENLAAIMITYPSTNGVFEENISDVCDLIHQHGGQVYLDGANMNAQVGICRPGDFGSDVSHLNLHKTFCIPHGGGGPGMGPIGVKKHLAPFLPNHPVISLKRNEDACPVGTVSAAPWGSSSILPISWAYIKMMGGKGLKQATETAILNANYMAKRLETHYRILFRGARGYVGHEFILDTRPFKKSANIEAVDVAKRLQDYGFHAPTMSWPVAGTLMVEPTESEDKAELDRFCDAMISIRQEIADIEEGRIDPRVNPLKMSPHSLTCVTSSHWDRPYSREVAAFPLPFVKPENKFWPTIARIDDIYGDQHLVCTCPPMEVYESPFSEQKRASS", "T1 sequence (P48728 29-403)": "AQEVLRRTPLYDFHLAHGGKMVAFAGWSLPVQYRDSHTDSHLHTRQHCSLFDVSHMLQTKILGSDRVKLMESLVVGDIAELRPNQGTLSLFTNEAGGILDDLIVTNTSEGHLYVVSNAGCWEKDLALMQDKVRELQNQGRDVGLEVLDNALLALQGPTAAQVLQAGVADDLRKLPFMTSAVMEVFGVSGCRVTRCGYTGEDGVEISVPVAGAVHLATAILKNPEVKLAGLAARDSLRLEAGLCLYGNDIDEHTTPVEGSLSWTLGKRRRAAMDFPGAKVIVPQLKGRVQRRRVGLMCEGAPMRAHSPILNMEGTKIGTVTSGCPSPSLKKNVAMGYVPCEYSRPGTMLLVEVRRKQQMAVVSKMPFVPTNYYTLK", "T1 sequence (P23434 49-173)": "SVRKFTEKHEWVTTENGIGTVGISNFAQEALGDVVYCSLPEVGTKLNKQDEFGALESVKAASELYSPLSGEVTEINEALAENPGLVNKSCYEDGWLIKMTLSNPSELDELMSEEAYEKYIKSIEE", "T1 sequence (P09622 36-509)": "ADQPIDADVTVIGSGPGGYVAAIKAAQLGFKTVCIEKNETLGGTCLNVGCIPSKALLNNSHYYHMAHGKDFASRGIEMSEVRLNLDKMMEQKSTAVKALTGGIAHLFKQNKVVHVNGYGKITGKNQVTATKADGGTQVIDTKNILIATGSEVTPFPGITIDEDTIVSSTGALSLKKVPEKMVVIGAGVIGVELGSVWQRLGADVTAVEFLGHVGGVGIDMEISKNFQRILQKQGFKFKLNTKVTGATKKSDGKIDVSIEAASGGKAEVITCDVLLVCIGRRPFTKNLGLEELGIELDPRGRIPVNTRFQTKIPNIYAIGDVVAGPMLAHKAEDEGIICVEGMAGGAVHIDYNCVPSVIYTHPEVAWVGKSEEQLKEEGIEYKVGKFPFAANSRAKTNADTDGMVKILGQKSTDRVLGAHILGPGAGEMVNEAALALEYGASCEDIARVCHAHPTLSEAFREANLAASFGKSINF", "conditions": "Benavides 1983; cited from earlier work"}, "negative symptoms": {"system": "negative symptoms", "conditions": "cited from earlier work"}, "[2]": {"system": "hyperlocomotion induced by PCP or related drugs", "conditions": "PCP or related drugs as challenge stimulants, rodents; cited from earlier work"}, "[3]": {"system": "apomorphine-induced climbing behavior", "assay": "apomorphine-induced climbing test in mice", "format": "in vivo", "conditions": "for inhibition of apomorphine-induced climbing behavior: apomorphine 1.25 mg/kg subcutaneously", "text": "Although the complex interaction of glycine with the neurotransmitter dopamine is not yet fully understood, the counterbalancing effects (symmetric bilateral changes) of glycine and dopamine, at least in part via GABAergic and cholinergic interneurons, in the central nervous system are well known for long ([…] et al., 1978; Giorguieff et al., 1979; […] et al., 1979; Schmidt and […] et al., 1998). Dopamine antagonists are the classic antischizophrenic drugs, and conventional animal models to test for antischizophrenic drugs with a dopaminergic mechanism of action use the induction of stereotyped behaviours such as climbing behavior in mice by the application of dopamine-agonistic drugs such as apomorphine (Protais et al., 1976; Puech et al., 1978). […] Therefore the model compound cysteamine at the doses indicated before are investigated in the climbing test in mice, too."}, "[4]": {"system": "PCP-induced disruption of PPI", "assay": "PCP-induced disruption of prepulse inhibition (PPI)", "format": "in vivo, rats", "text": "For the PCP-induced disruption of PPI we use a commercially available standard equipment (Coulbourn Instruments, USA) consisting of a sound attenuated test box equipped with a startle response measuring unit connected to a microcomputer; a white noise generator applies a constant level of back ground noise during the experiment. After a habituation period, a series of 70 combinations of prepulses (no prepulse or […] above back ground noise) and pulses (90 to 126 dB) is randomly applied to the rats. […] In control animals, presentation of the prepulse inhibits the startle response elicited by the pulse alone. PCP at the indicated doses induces a disruption of PPI by a maximum of about 70% compared to control animals. The doses indicated above are used for valproate and cysteamine, administered before the PCP challenge."}, "[5]": {"system": "PCP-induced hyperlocomotion", "assay": "PCP-induced hyperlocomotion model", "format": "in vivo", "method": "For the PCP-induced hyperlocomotion model we use a test apparatus consisting of a clear plexiglass box (45 cm×45 cm) equipped with two series of equally spaced infrared beam lights controlling X-Y axes and connected to a microcomputer. Measured automatically are the distance (way) traveled [m], and the time spent with locomotion or resting [sec] in intervals of 30 min over a total of 90 minutes following PCP administration. […] PCP at the indicated dose induces excessive locomotor behavior with an increase of about 200-250% measured by either locomotion distance or time compared to control animals."}, "[6]": {"system": "negative symptoms in schizophrenic patients", "conditions": "cited from earlier work"}, "glycine levels": {"system": "glycine levels", "conditions": "i.p. 250 mg/kg in 8 day old rats (Iwama 1997); cited from earlier work"}, "[7]": {"biological_target": "T1, Glycine Cleavage System (GCS)", "conditions": "brain mitochondria; read-out: Ki for GCS inhibition; cited from earlier work"}, "[8]": {"biological_target": "T1, Glycine Cleavage System (GCS)", "conditions": "liver mitochondria; read-out: Ki for GCS inhibition; cited from earlier work"}}, "note": "“Also recorded” adds a separate entry of the source. Read-outs that look alike come from different tables or passages of the source.", "data": [{"smiles": "N#CCN", "note": "[aminoacetonitrile]", "values": [{"measurement": "GCS inhibition (in words)", "setting": "[1]", "result": "weak inhibitors"}]}, {"smiles": "NCC(=O)O", "note": "[glycine]", "values": [{"measurement": "side effects", "setting": "negative symptoms; 0.4 g/kg and 0.8 g/kg glycine orally along with usual antipsychotic medication", "result": "No changes"}, {"measurement": "amelioration of negative symptoms", "setting": "negative symptoms; 0.4 g/kg glycine orally along with usual antipsychotic medication", "result": 15, "unit": "%"}, {"measurement": "amelioration of negative symptoms", "setting": "negative symptoms; 0.8 g/kg glycine orally along with usual antipsychotic medication", "result": 30, "unit": "%"}, {"measurement": "efficacy in the hyperlocomotion model", "setting": "[2]", "result": "repeatedly demonstrated"}]}, {"smiles": "CCCCCCCCCCCCNC(=O)CN", "note": "[GDA, glycyldodecylamide]", "values": [{"measurement": "inhibition of apomorphine-induced climbing behavior", "setting": "[3]", "result": "inhibited"}, {"measurement": "efficacy in the hyperlocomotion model", "setting": "[2]", "result": "repeatedly demonstrated"}]}, {"smiles": "c1ccc(C2(N3CCCCC3)CCCCC2)cc1", "note": "[PCP, phencyclidine]", "values": [{"measurement": "disruption of PPI compared to control animals (maximum)", "setting": "[4]; PCP 1-5 mg/kg subcutaneously", "result": "about 70%"}, {"measurement": "increase of locomotor behavior (distance or time) compared to control animals", "setting": "[5]; PCP 5 mg/kg intraperitoneally", "result": "200-250%"}]}, {"smiles": "N[C@@H]1CONC1=O", "note": "[D-cycloserine]", "values": [{"measurement": "inhibition of apomorphine-induced climbing behavior", "setting": "[3]", "result": "inhibited"}, {"measurement": "negative symptoms", "setting": "[6]; 50 mg/d along with effective dose of antipsychotics, double blind, placebo-controlled (Goff 1999)", "result": "improvement in negative symptoms"}, {"measurement": "negative symptoms in schizophrenic patients", "setting": "[6]; 50 mg/d, trial assessing 15 to 250 mg/d (Goff 1995)", "result": "reduced negative symptoms"}, {"measurement": "efficacy in the hyperlocomotion model", "setting": "[2]", "result": "repeatedly demonstrated"}]}, {"smiles": "N[C@@H]1CCN(O)C1=O", "note": "[R-(+)-HA-966, R-(+)-3-amino-1-hydroxypyrrolid-2-one]", "values": [{"measurement": "efficacy in the hyperlocomotion model", "setting": "[2]", "result": "repeatedly demonstrated"}]}, {"smiles": "C#CCN", "note": "[propargylamine]", "values": [{"measurement": "GCS inhibition (in words)", "setting": "[1]", "result": "weak inhibitors"}]}, {"smiles": "NCCS", "note": "[Cysteamine]", "values": [{"measurement": "ED50", "setting": "[3]; Mus musculus, given prior to the apomorphine challenge, read-out: ED50 (dose which inhibits apomorphine-induced climbing by 50%)", "result": 500, "unit": "mg/kg"}, {"measurement": "glycine in the cortex, % of control animals", "setting": "glycine levels", "result": 360, "unit": "%"}, {"measurement": "effect on PCP-induced disruption of PPI", "setting": "[4]; 100 to 500 mg/kg parenterally before PCP 1-5 mg/kg s.c., different prepulse/pulse combinations", "result": "reverse PCP-induced disruption of PPI"}, {"measurement": "effect on PCP-induced hyperlocomotion", "setting": "[5]; 100 to 500 mg/kg parenterally before PCP 5 mg/kg i.p., distance traveled and locomotion time over 90 min", "result": "reduction of PCP-induced hyperlocomotion; also recorded: reduce PCP-induced hyperlocomotion"}]}, {"smiles": "CCCC(CCC)C(=O)O", "note": "[Valproate]", "values": [{"measurement": "Ki", "setting": "[7]", "result": 2, "unit": "mM"}, {"measurement": "Ki", "setting": "[8]", "result": 590, "unit": "µM"}]}]}
